Experimental data taken from PubChem BioAssay AID624129 (Sanford-Burnham Center for Chemical Genomics, 2012).
Active and inactive are the calls of the source. No rule for the calls is given here.

Columns and labels:
Assay in all cases: CXCR6 receptor antagonists, dose response, cell-based, beta-arrestin, DiscoveRx, APJ panel, uHTS hits (AID 624129)
[1] = biological target: C-C chemokine receptor type 6 (Homo sapiens) (UniProt P51684); details: CXCR6 beta-arrestin (DiscoveRx) antagonist cell assay
[2] = biological target: Apelin receptor (Homo sapiens) (UniProt P35414); details: CXCR6 beta-arrestin (DiscoveRx) antagonist cell assay, APJ
[3] = biological target: C-X-C chemokine receptor type 6 (Homo sapiens) (UniProt O00574); details: CXCR6 beta-arrestin (DiscoveRx) antagonist cell assay; for inhibition: CXCR6, run 1, dose range 2, at 80 µM (top of the series)
Chain of C-X-C chemokine receptor type 6 (Homo sapiens) (O00574 whole entry, looked up): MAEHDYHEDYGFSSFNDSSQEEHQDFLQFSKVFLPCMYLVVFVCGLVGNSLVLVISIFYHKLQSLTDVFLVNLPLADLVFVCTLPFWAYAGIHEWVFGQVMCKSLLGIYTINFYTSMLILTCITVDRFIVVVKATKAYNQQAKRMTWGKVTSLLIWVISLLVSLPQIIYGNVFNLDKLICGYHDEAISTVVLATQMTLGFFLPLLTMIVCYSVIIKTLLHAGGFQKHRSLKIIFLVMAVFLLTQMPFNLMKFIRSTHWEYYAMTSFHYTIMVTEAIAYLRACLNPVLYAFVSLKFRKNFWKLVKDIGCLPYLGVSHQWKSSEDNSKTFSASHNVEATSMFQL

[4] = biological target: Beta-galactosidase (Escherichia coli) (UniProt Q8VNN2); details: CXCR6 beta-arrestin (DiscoveRx) antagonist cell assay, b-galactosidase
Chain of Beta-galactosidase (Escherichia coli) (Q8VNN2 whole entry, looked up): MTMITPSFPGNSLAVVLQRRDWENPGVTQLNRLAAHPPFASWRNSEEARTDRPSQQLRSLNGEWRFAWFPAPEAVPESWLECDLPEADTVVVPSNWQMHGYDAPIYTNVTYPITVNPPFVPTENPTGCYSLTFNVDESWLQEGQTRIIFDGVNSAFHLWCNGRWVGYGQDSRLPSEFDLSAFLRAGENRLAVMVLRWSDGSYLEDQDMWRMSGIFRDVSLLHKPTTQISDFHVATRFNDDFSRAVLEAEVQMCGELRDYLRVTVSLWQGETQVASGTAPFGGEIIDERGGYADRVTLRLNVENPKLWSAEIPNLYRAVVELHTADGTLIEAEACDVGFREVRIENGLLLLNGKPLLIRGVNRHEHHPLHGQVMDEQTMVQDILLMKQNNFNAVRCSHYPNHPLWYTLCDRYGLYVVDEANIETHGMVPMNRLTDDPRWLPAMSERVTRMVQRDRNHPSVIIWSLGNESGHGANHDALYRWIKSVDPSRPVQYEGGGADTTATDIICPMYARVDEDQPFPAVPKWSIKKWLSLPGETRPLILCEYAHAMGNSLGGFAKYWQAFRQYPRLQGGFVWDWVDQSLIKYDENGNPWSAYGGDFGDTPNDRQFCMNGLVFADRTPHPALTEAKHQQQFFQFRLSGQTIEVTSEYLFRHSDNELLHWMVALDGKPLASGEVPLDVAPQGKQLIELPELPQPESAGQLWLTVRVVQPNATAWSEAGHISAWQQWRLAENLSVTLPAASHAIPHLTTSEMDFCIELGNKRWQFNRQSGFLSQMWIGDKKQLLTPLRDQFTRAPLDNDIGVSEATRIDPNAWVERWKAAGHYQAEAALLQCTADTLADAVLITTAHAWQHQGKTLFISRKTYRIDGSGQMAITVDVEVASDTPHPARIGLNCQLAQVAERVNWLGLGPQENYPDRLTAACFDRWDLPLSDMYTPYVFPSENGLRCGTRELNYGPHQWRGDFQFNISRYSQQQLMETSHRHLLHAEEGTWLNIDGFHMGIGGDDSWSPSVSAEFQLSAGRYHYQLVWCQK

[5] = CCR6, dose range 1, mean IC50 across replicates
[6] = dose range 1, mean IC50 across replicates
[7] = CXCR6, dose range 1, mean IC50 across replicates

IC50 ([1]; CCR6, dose range 1) [µM] | IC50 [1, 5] [µM] | IC50 ([1]; CCR6, run 2, dose range 1) [µM] | IC50 ([2]; dose range 1) | IC50 [2, 6] [µM] | IC50 ([2]; run 2, dose range 1) [µM] | IC50 ([2]; run 3, dose range 1) [µM] | IC50 ([3]; CXCR6, dose range 1) | IC50 [3, 7] [µM] | inhibition [3] [%] | IC50 ([3]; CXCR6, run 2, dose range 1) [µM] | IC50 ([4]; dose range 1) | IC50 [4, 6] [µM] | IC50 ([3]; CXCR6, run 1, dose range 2) [µM] | IC50 ([3]; CXCR6, run 2, dose range 2) [µM] | Compound
24.5 | 23.2 | 21.9 | 38.4 µM | 38.9 | 37.8 | 40.5 | inactive | 22.3 | 135 | 20.9 | > 80 µM (inactive) | > 80 | – | – | C=C(CN(C)C)C(=O)c1ccc(OC2OC(COC(C)=O)C(OC(C)=O)C(OC(C)=O)C2OC(C)=O)cc1 (centres undefined)
8.92 | 8.58 | 8.23 | 10.3 µM | 9.16 | 8.53 | 8.62 | 18.7 µM | 10.9 | – | 8.52 | > 80 µM (inactive) | > 80 | 5.57 | 10.9 | O=C(NNC(=O)C12CC3CC(CC(C3)C1)C2)c1ccccn1
27.4 | 37.9 | 48.5 | 68.7 µM | 68.7 | > 80 | > 80 | inactive | 45.5 | 73.2 | 32.1 | > 80 µM (inactive) | > 80 | – | – | CS(=O)(=O)c1sc(C#N)c2c1C(=O)CC(c1ccccc1)C2 (centres undefined)
7.57 | 7.24 | 6.9 | 13.7 µM | 12.6 | 11.4 | > 80 | 7.68 µM | 8.6 | – | 8.78 | > 80 µM (inactive) | > 80 | 8.96 | 8.98 | COc1ccc(OC)c(NC(=O)c2nc(S(=O)(=O)Cc3ccccc3)ncc2Cl)c1
– | > 80 | > 80 | – | > 80 | > 80 | > 80 | > 80 µM (inactive) | > 80 | 19.9 | > 80 | > 80 µM (inactive) | > 80 | – | – | N#CC(C#N)=C1C=CC=CN1/C(=C\c1ccco1)C(=O)c1ccc(Br)cc1
5.29 | 6.44 | 7.59 | 3.72 µM | 18.7 | 12.7 | 39.6 | 6.47 µM | 4.36 | 49.5 | 2.24 | > 80 µM (inactive) | > 80 | – | – | Oc1c(I)cc(Cl)c2cccnc12
– | > 80 | > 80 | – | > 80 | > 80 | > 80 | > 80 µM (inactive) | > 80 | -28.7 | > 80 | > 80 µM (inactive) | > 80 | – | – | Cc1nc2c(-c3ccc(Cl)cc3)c(C)[nH]n2c(=O)c1Cc1ccccc1
10.5 | 12 | 13.5 | 14.3 µM | 15.7 | 16.1 | 16.5 | inactive | 12.1 | 116 | 10.7 | > 80 µM (inactive) | > 80 | – | – | CNC(=O)c1nnsc1S(=O)(=O)c1ccc(Cl)cc1
9.21 | 8.82 | 8.44 | 14.2 µM | 14.4 | 15.4 | 13.6 | 13.7 µM | 10.7 | – | 8.84 | > 80 µM (inactive) | > 80 | 9.08 | 11.3 | CC(=O)Nc1ccc(Sc2ccc([N+](=O)[O-])o2)cc1
15.1 | 12.9 | 10.7 | – | > 80 | > 80 | > 80 | inactive | 18.7 | 58.6 | 15.8 | > 80 µM (inactive) | > 80 | – | – | C=C1CC2(OC1=O)c1ccccc1CCc1ccccc12
4.29 | 4.53 | 4.78 | 3.1 µM | 3.6 | 3.87 | 3.84 | – | 4.08 | – | 3.49 | > 80 µM (inactive) | > 80 | 5.5 | 3.25 | O=C(Nc1nnc(SCc2ccc(F)cc2)s1)c1ccccn1
1.67 | 1.55 | 1.44 | 1.2 µM | 2.26 | 3.32 | > 80 | 1.37 µM | 1.23 | – | 0.993 | > 80 µM (inactive) | > 80 | 1.42 | 1.13 | O=C1C(Cc2ccccc2)Nc2ncnc(N3CCN(c4ccccc4)CC3)c2N1Cc1ccc(Br)cc1 (centres undefined)
6.25 | 5.69 | 5.13 | 7.36 µM | 7.72 | 7.88 | 7.91 | 6.05 µM | 7.41 | – | 6.38 | > 80 µM (inactive) | > 80 | 8.06 | 9.16 | CN(c1ccccc1)S(=O)(=O)c1ccc(NC(=O)c2nc(S(C)(=O)=O)ncc2Cl)cc1
10.6 | 10 | 9.43 | 8.65 µM | 9.87 | 10.6 | 10.4 | inactive | 14.9 | – | 20.7 | inactive | 51.9 | 12.7 | 8.67 | CC(C)c1ccc(O)c(NC(=S)NC(=O)c2cccnc2)c1
4.86 | 6.32 | 7.78 | 9.45 µM | 21.1 | 8.84 | 45.1 | 9.39 µM | 8.38 | 122 | 7.37 | > 80 µM (inactive) | > 80 | – | – | COc1ccc(CCN2C(=O)C=CC2=O)cc1OC
7.67 | 12 | 16.3 | 8.9 µM | 11.3 | 14.6 | 10.5 | inactive | 12.9 | – | 20.2 | inactive | 56 | 8.01 | 12.9 | CCC(C)c1ccc(O)c(NC(=S)NC(=O)c2cccnc2)c1 (centres undefined)
3.28 | 2.67 | 2.06 | inactive | 20.2 | 5.81 | 53.2 | 2.01 µM | 1.94 | – | 2.04 | > 80 µM (inactive) | > 80 | 1.77 | 1.94 | O=C1C(Cc2ccccc2)Nc2ncnc(N3CCN(c4ccccc4)CC3)c2N1Cc1ccc(Cl)cc1 (centres undefined)
8.13 | 8.52 | 8.91 | 8.43 µM | 10.5 | 12.4 | 10.6 | 10.4 µM | 8.97 | – | 9.6 | > 80 µM (inactive) | > 80 | 6.4 | 9.45 | N=C1S/C(=C\c2ccco2)C(=O)N1c1nccs1
0.29 | 0.271 | 0.251 | 0.364 µM | 0.281 | 0.236 | 0.242 | 0.476 µM | 0.435 | 113 | 0.395 | > 80 µM (inactive) | > 80 | – | – | Cc1ccc(C(=O)CNc2ccc(F)cc2)cc1
– | > 80 | > 80 | – | > 80 | > 80 | > 80 | > 80 µM (inactive) | > 80 | -34.5 | > 80 | > 80 µM (inactive) | > 80 | – | – | COc1ccc(C(=O)/C=C/C(=O)N(CC(=O)NC2CCCCC2)CC2CCCO2)c(O)c1 (centres undefined)
9.4 | 11.1 | 12.7 | > 80 µM (inactive) | > 80 | > 80 | > 80 | – | 8.57 | – | > 80 | > 80 µM (inactive) | > 80 | 9.5 | 7.63 | O=C1CN(C(=O)CSc2nc3cc(Cl)ccc3c(=O)n2Cc2ccccc2)c2ccccc2N1
6.31 | 9.54 | 12.8 | 7.86 µM | 7.23 | 7.26 | 6.56 | inactive | 12.6 | – | 13.7 | > 80 µM (inactive) | > 80 | 9.33 | 12 | COc1cccc(-n2nc(C#N)c(Cl)cc2=O)c1
